We go through two compounds from patent US20250009834A1, “COMPOSITION OF BEVERAGE CONCENTRATE CONTAINING CITRIC ACID AND NATURAL ANTIOXIDANT” (priority 2021, published 2025).

The nature of this experiment: CaOx aggregation inhibition (aggregation coefficient of seed COM crystals). The settings on record: 200 μL sample added to 2 mL seed COM suspension, 37° C., 10 min; embodiment 100% concentration; BSA 1 mg/mL; citric acid positive control. The protocol:
In the following in-vitro trials, all “%” marks represented percentages by weight. An embodiment of “100%” concentration was prepared by mixing 60 mL of a beverage concentrate of an exemplary composition (see Table 1 above) with 440 mL of distilled water, equivalent to a ratio of 0.136 parts of the exemplary composition to one part of water. An embodiment of a concentration lower than 100% was prepared by further diluting said embodiment of 100% concentration with distilled water by a conventionally known dilution means that is appropriate for food and beverages. All the mixtures concerned were conventionally mixed to achieve effective uniformity for food and beverages.
Seed calcium oxalate monohydrate (COM) crystals were prepared and diluted to 50 mg/mL in 0.05 M Tris/0.15 NaCl, pH 6.5. An embodiment having the 100% concentration, or bovine serum albumin (BSA) or distilled water (blank) (200 μL) was added to the freshly prepared working seed COM suspension (2 mL). After mixing, absorbance at 620 nm was measured as baseline (AT0). After incubating at 37° C. for 10 min. absorbance was measured again (AT10). The aggregation coefficient (AC) was calculated from: AC=((AT0−AT10)/10)×1,000. Higher AC value indicates higher COM aggregation.

With `O=C(O)CC(O)(CC(=O)O)C(=O)O` [Citric acid], the “aggregation of seed COM crystals” value is listed as “strongly inhibited”.
As to bovine serum albumin [BSA], the “aggregation of seed COM crystals” value is “did not”.
